Assay results from PubChem BioAssay AID330 (DTP/NCI, 2004).
“And” between values parts separate entries of the source, which are not always exact repeats. Equal values may be shown once. Inconclusive results and toxic doses are left out. Rule for the calls: active = survival T/C of 150% or more; inactive = T/C below 125% in these data. Square brackets hold non-standard residues; d marks the D form. Peptide text beside a SMILES is read from it. * marks the point of attachment. ξ: configuration not given here. Boc = CC(C)(C)OC(=O)*; ξI = CCC(C)C(N)C(=O)O

System: P388 leukemia ip, CD2F1 mice, survival T/C
Test: NCI In Vivo Anticancer Drug Screen. Data for tumor model P388 Leukemia (intraperitoneal) in CD2F1 (CDF1) mice
Details: endpoint: median survival time, higher = longer survival
How it was run: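 Mice carrying the transplanted tumor received test compound or vehicle. Survival was recorded in each group, and the value is the treated-group measurement divided by that of the vehicle-treated control group.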

[1] = dose: 50.0 mg/kg/injection, schedule: Q01DX009 (ip), vehicle: Klucel (hydroxypropylcellulose) (HPC)
[2] = dose: 100.0 mg/kg/injection, schedule: Q01DX009 (ip), vehicle: Klucel (hydroxypropylcellulose) (HPC)
[3] = dose: 60.0 mg/kg/injection, schedule: Q01DX005 (ip), vehicle: saline with Tween-80
[4] = dose: 120.0 mg/kg/injection, schedule: Q01DX005 (ip), vehicle: saline with Tween-80
[5] = dose: 240.0 mg/kg/injection, schedule: Q01DX005 (ip), vehicle: saline with Tween-80
[6] = dose: 100.0 mg/kg/injection, schedule: Q04DX003 (ip), vehicle: saline with Tween-80
[7] = dose: 200.0 mg/kg/injection, schedule: Q04DX003 (ip), vehicle: saline with Tween-80
[8] = dose: 200.0 mg/kg/injection, schedule: Q01DX009 (ip), vehicle: Klucel (hydroxypropylcellulose) (HPC)
[9] = dose: 60.0 mg/kg/injection, schedule: Q01DX005 (ip), vehicle: saline
[10] = dose: 120.0 mg/kg/injection, schedule: Q01DX005 (ip), vehicle: saline
[11] = dose: 240.0 mg/kg/injection, schedule: Q01DX005 (ip), vehicle: saline
[12] = dose: 50.0 mg/kg/injection, schedule: Q01DX009 (ip), vehicle: saline with Tween-80
[13] = dose: 100.0 mg/kg/injection, schedule: Q01DX009 (ip), vehicle: saline with Tween-80
[14] = dose: 200.0 mg/kg/injection, schedule: Q01DX009 (ip), vehicle: saline with Tween-80
[15] = dose: 6.25 mg/kg/injection, schedule: Q04DX003 (ip), vehicle: saline with Tween-80
[16] = dose: 12.5 mg/kg/injection, schedule: Q04DX003 (ip), vehicle: saline with Tween-80
[17] = dose: 25.0 mg/kg/injection, schedule: Q04DX003 (ip), vehicle: saline with Tween-80
[18] = dose: 100.0 mg/kg/injection, schedule: Q04DX002 (ip), vehicle: saline with Tween-80
[19] = dose: 200.0 mg/kg/injection, schedule: Q04DX002 (ip), vehicle: saline with Tween-80
[20] = dose: 400.0 mg/kg/injection, schedule: Q04DX002 (ip), vehicle: saline with Tween-80

Measured: T/C

CC1(C)OCC(C2OC(C)(C)OC2C2COC(C)(C)O2)O1 (centres undefined)
inactive: dose: 12.5 mg/kg/injection, schedule: Q01DX009 (ip), vehicle: Klucel (hydroxypropylcellulose) (HPC) 105 % of control | dose: 25.0 mg/kg/injection, schedule: Q01DX009 (ip), vehicle: Klucel (hydroxypropylcellulose) (HPC) 106 % of control | [1] 108 % of control | [2] 100 % of control

CSC(=N\N=C\c1ccc(N(C)C)cc1)/N=C/N(C)C
inactive: [3] 100 % of control | [4] 103 % of control | [5] 103 % of control

Cc1ccc(Cl)cc1NC(=O)COc1ccc(Cl)cc1Cl
inactive: [6] 100 % of control | [7] 100 % of control | dose: 400.0 mg/kg/injection, schedule: Q04DX003 (ip), vehicle: saline with Tween-80 90 % of control

Cc1ccc(N2C(=O)CC3(CCCC3)C2=O)cc1Cl
inactive: [1] 104 % of control | [2] 108 % of control | [8] 105 % of control

COc1cc(C2c3cc4c(cc3OC(C)(OC)C2C)OCO4)cc(OC)c1OC (centres undefined)
inactive: dose: 1.8 mg/kg/injection, schedule: Q01DX005 (ip), vehicle: saline 103 % of control | dose: 3.75 mg/kg/injection, schedule: Q01DX005 (ip), vehicle: saline 98 % of control | dose: 7.5 mg/kg/injection, schedule: Q01DX005 (ip), vehicle: saline 93 % of control | dose: 15.0 mg/kg/injection, schedule: Q01DX005 (ip), vehicle: saline 91 % of control | dose: 30.0 mg/kg/injection, schedule: Q01DX005 (ip), vehicle: saline 89 % of control | [9] 102 % of control and 86 % of control | [10] 86 % of control | [11] 92 % of control

CC1(C)NNC(=S)NC1=O
inactive: [1] 99 % of control | [12] 100 % of control | [2] 97 % of control | [13] 113 % of control | [8] 94 % of control | [14] 97 % of control

N#CCCC1(CCC#N)CCCC(CCC#N)(CCC#N)C1=O
inactive: [12] 95 % of control | [13] 99 % of control | [14] 87 % of control | dose: 400.0 mg/kg/injection, schedule: Q01DX009 (ip), vehicle: saline with Tween-80 92 % of control

O=C(Nc1ccc(C2=NCC(O)CN2)cc1)c1ccc(C(=O)Nc2ccc(C3=NCC(O)CN3)cc2)cc1 (centres undefined)
inactive: dose: 1.56 mg/kg/injection, schedule: Q01DX005 (ip), vehicle: saline with Tween-80 122 % of control
active: dose: 6.25 mg/kg/injection, schedule: Q01DX005 (ip), vehicle: saline with Tween-80 155 % of control

CCCC(N)P(=O)(O)O (centres undefined)
inactive: dose: 50.0 mg/kg/injection, schedule: Q01DX009 (ip), vehicle: saline 99 % of control | dose: 100.0 mg/kg/injection, schedule: Q01DX009 (ip), vehicle: saline 93 % of control | dose: 200.0 mg/kg/injection, schedule: Q01DX009 (ip), vehicle: saline 96 % of control | dose: 400.0 mg/kg/injection, schedule: Q01DX009 (ip), vehicle: saline 93 % of control

NCCCCC(C(=O)NC(CCC(=O)OCc1ccccc1)C(=O)Oc1ccc([N+](=O)[O-])cc1)N(C(=O)OCc1ccccc1)C(=O)OCc1ccccc1 (centres undefined)
inactive: dose: 50.0 mg/kg/injection, schedule: Q01DX005 (ip), vehicle: saline with Tween-80 100 % of control | dose: 100.0 mg/kg/injection, schedule: Q01DX005 (ip), vehicle: saline with Tween-80 100 % of control | dose: 200.0 mg/kg/injection, schedule: Q01DX005 (ip), vehicle: saline with Tween-80 92 % of control

Cn1c(SCC(=O)O)nnc1C1CCC(=O)N1Cc1ccccc1 (centres undefined)
inactive: [3] 110 % of control | [4] 103 % of control | [5] 98 % of control

CCOCCOCCOC(C)Oc1ccccc1OC (centres undefined)
inactive: [3] 100 % of control | [4] 104 % of control | [5] 106 % of control

CCCCCC(=O)SCC(=O)OCC(=O)[C@]1(O)Cc2c(O)c3c(c(O)c2[C@@H](OC2CC(N)C(O)C(C)O2)C1)C(=O)c1c(OC)cccc1C3=O (some centres undefined)
active: dose: 0.78 mg/kg/injection, schedule: Q01DX009 (ip), vehicle: water 169 % of control | dose: 1.56 mg/kg/injection, schedule: Q01DX009 (ip), vehicle: water 174 % of control and 179 % of control | dose: 3.13 mg/kg/injection, schedule: Q01DX009 (ip), vehicle: water 194 % of control and 209 % of control
inactive: dose: 6.25 mg/kg/injection, schedule: Q01DX009 (ip), vehicle: water 104 % of control

Nc1nc2nc3c(nc2c(=O)[nH]1)C(=O)N(c1ccc(C(=O)O)cc1)C3
inactive: [15] 111 % of control | [16] 98 % of control | [17] 100 % of control and 103 % of control

CCC(C)C(N)C(=O)NCC(=O)O (centres undefined) (H-[ξI]-Gly-OH)
inactive: [9] 96 % of control | [10] 96 % of control | [11] 96 % of control

CC(C)(C)OC(=O)NCC(=O)NCC(=O)O (Boc-Gly-Gly-OH)
inactive: dose: 50.0 mg/kg/injection, schedule: Q01DX005 (ip), vehicle: saline 102 % of control | dose: 100.0 mg/kg/injection, schedule: Q01DX005 (ip), vehicle: saline 102 % of control | dose: 200.0 mg/kg/injection, schedule: Q01DX005 (ip), vehicle: saline 101 % of control

CCC[As](=O)(O)CCC
inactive: dose: 20.0 mg/kg/injection, schedule: Q01DX009 (ip), vehicle: saline 100 % of control | dose: 25.0 mg/kg/injection, schedule: Q04DX003 (ip), vehicle: saline 86 % of control | dose: 30.0 mg/kg/injection, schedule: Q01DX009 (ip), vehicle: saline 100 % of control | dose: 45.0 mg/kg/injection, schedule: Q01DX009 (ip), vehicle: saline 113 % of control | dose: 50.0 mg/kg/injection, schedule: Q04DX003 (ip), vehicle: saline 109 % of control | dose: 100.0 mg/kg/injection, schedule: Q04DX003 (ip), vehicle: saline 90 % of control

Cc1ccc(S(=O)(=O)NCCCl)cc1
inactive: [17] 104 % of control | dose: 50.0 mg/kg/injection, schedule: Q04DX003 (ip), vehicle: saline with Tween-80 99 % of control | [6] 114 % of control | [7] 98 % of control

OCC1C2CCCC12 (centres undefined)
inactive: [12] 95 % of control | [13] 114 % of control | [14] 104 % of control

c1ccc2c(c1)CCC1=C2S/C(=C2/SC3=C(S2)c2ccccc2CC3)S1
inactive: dose: 7.5 mg/kg/injection, schedule: Q01DX005 (ip), vehicle: saline with Tween-80 94 % of control | dose: 15.0 mg/kg/injection, schedule: Q01DX005 (ip), vehicle: saline with Tween-80 100 % of control | dose: 30.0 mg/kg/injection, schedule: Q01DX005 (ip), vehicle: saline with Tween-80 100 % of control

FC(F)(F)c1ccccc1N=Nc1c(-c2ccccc2)nn(C(=S)S)c1-c1ccccc1
inactive: [18] 93 % of control | [19] 91 % of control | [20] 100 % of control

CCC(=O)NCC(=O)O
inactive: dose: 3.13 mg/kg/injection, schedule: Q01DX009 (ip), vehicle: saline with Tween-80 100 % of control | dose: 6.25 mg/kg/injection, schedule: Q01DX009 (ip), vehicle: saline with Tween-80 104 % of control and 86 % of control | [15] 110 % of control | dose: 12.5 mg/kg/injection, schedule: Q01DX009 (ip), vehicle: saline with Tween-80 109 % of control | [16] 100 % of control | [17] 100 % of control

COc1ccc2c(c1OC)-c1ccccc1C(=O)OC2
inactive: [18] 109 % of control | [19] 100 % of control | [20] 91 % of control

NNc1ccc(-n2ncc(C(N)=O)c2N)nn1
inactive: dose: 50.0 mg/kg/injection, schedule: Q01DX005 (ip), vehicle: other 104 % of control | dose: 100.0 mg/kg/injection, schedule: Q01DX005 (ip), vehicle: other 107 % of control
